{"source": "patent US11155586B2", "about": "“Cystine knot scaffold platform” (Genentech, Inc., priority 2015, dated 2021)", "key": {"trypsin [1]": {"system": "trypsin", "assay": "Trypsin protease activity, peptide substrate cleavage assay", "type": "biochemical", "conditions": "FIG. 3"}, "trypsin [2]": {"system": "trypsin", "assay": "Resistance to trypsin digestion", "type": "in vitro ADME", "experimental": "Approximately 20% of VEGF_CKP9.54.90 was cleaved at Arg13 within loop 2 after 24 h incubation with trypsin at 37° C."}, "[3]": {"assay": "Oxidative stability (AAPH, LC-MS)", "type": "physicochemical", "conditions": "16 hours at 40° C.", "experimental": "The oxidative stability of various CKP variants was assayed as follows: 5 μL of 11 mM AAPH (Calbiochem catalog no. 100110) in water was added to 50 uL of variant peptide sample (prepared as 1 mg/mL peptide in 20 mM histidine acetate pH 5.5) and the mix was incubated for 16 hours at 40° C. At the end of the incubation, the sample was quenched by addition of 27.5 uL of 40 mM methionine, followed by addition of 160 ul of 20 mM Histidine acetate, 100 mM sucrose at pH 5.5 to dilute the samples. The reactions were analyzed by LC-MS."}, "[4]": {"system": "choroidal neovascularization in rat eyes", "assay": "VEGF-A driven model of laser-induced choroidal neovascularization", "type": "in vivo", "conditions": "intravitreal, 14-day period, vs control eyes, FIG. 12", "experimental": "Next, VEGF-A binding variants VEGF_CKP9.54.90, VEGF_CKP9.63.12, and VEGF_CKP9.63.44 were assessed for their in vivo efficacy in a VEGF-A driven model of choroidal neovascularization. Laser-burnt spots were created in rat eyes and the formation of new vessels was monitored after a 14-day period in the presence and absence of peptide that was administered intravitreally at different intervals."}, "EGF and EGFR": {"biological_target": "T1, EGF and EGFR (Homo sapiens, UniProt P01133)", "T1 construct": "purchased R &D Systems (Minneapolis, Minn.)", "T1 sequence (P01133 971-1023 limits assumed)": "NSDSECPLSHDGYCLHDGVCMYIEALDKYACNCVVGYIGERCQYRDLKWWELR", "assay": "Competition ELISA, growth factor/receptor interaction", "type": "binding", "conditions": "FIG. 2B", "experimental": "(§1) Binding specificity of each peptide was established by competition ELISA. […] After blocking with block buffer (PBS with 0.5% BSA and 0.05% TWEEN®20) for 2 hours at room temperature, the receptor-Fc fusions or biotinylated receptors were serially diluted using assay buffer (PBS with 0.5% BSA and 0.05% TWEEN®20) and incubated for 1 hour at room temperature. […] Competition ELISA was conducted in an identical fashion as described above except after blocking, a mixture of serially diluted peptide containing a constant concentration of receptor-Fc fusion or biotinylated receptor (concentration of receptor was set to EC60) was added and incubated for 1 hour. All recombinant human proteins and antibodies were purchased from R &D Systems (Minneapolis, Minn.)."}, "PDGF and PDGFR": {"biological_target": "T2, PDGF and PDGFR (Homo sapiens, UniProt P01127)", "T2 construct": "purchased R &D Systems (Minneapolis, Minn.)", "T2 sequence (P01127 82-190 limits assumed)": "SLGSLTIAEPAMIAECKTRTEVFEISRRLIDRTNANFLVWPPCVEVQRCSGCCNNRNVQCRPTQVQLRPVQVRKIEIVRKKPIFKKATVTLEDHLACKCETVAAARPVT", "assay": "Competition ELISA, growth factor/receptor interaction", "type": "binding", "conditions": "FIG. 2B", "experimental": "as §1"}, "PIGF-2 and Flt-1": {"biological_target": "T3, PIGF-2 and Flt-1 (Homo sapiens, UniProt P49763)", "T3 construct": "purchased R &D Systems (Minneapolis, Minn.)", "T3 sequence (P49763 19-170 isoform P49763-3 limits assumed)": "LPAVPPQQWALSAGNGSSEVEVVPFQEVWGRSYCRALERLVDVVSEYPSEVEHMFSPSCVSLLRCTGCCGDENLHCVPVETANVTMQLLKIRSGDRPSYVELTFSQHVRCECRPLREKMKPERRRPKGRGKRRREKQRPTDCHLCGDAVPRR", "assay": "Competition ELISA, growth factor/receptor interaction", "type": "binding", "conditions": "FIG. 2A", "experimental": "as §1"}, "VEGF-D and Flt-4": {"biological_target": "T4, VEGF-D and Flt-4 (Homo sapiens, UniProt O43915)", "T4 construct": "purchased R &D Systems (Minneapolis, Minn.)", "T4 sequence (O43915 89-205 limits assumed)": "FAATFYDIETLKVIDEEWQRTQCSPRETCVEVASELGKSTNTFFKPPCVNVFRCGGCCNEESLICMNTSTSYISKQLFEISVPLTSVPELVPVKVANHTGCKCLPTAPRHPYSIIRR", "assay": "Competition ELISA, growth factor/receptor interaction", "type": "binding", "conditions": "FIG. 2A", "experimental": "as §1"}, "NGF and NGFR": {"biological_target": "T5, NGF and NGFR (Homo sapiens, UniProt P01138)", "T5 construct": "purchased R &D Systems (Minneapolis, Minn.)", "T5 sequence (P01138 122-241)": "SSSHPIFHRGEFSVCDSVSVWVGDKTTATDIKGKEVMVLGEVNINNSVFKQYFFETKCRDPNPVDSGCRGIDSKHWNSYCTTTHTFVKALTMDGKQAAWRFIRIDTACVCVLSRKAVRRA", "assay": "Competition ELISA, growth factor/receptor interaction", "type": "binding", "conditions": "FIG. 2B", "experimental": "as §1"}, "VEGF-C and Flt-4": {"biological_target": "T6, VEGF-C and Flt-4 (Homo sapiens, UniProt P49767)", "T6 construct": "purchased R &D Systems (Minneapolis, Minn.)", "T6 sequence (P49767 112-227 limits assumed)": "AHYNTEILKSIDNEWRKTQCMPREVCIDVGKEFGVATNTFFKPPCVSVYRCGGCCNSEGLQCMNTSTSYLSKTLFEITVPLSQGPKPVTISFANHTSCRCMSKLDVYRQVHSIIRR", "assay": "Competition ELISA, growth factor/receptor interaction", "type": "binding", "conditions": "FIG. 2A", "experimental": "as §1"}, "IGF and IGFR": {"biological_target": "T7, IGF and IGFR (Homo sapiens, UniProt P05019)", "T7 construct": "purchased R &D Systems (Minneapolis, Minn.)", "T7 sequence (P05019 49-118 limits assumed)": "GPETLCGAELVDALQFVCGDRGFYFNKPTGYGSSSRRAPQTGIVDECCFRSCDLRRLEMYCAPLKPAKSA", "assay": "Competition ELISA, growth factor/receptor interaction", "type": "binding", "conditions": "FIG. 2B", "experimental": "as §1"}, "VEGF-B and Flt-1": {"biological_target": "T8, VEGF-B and Flt-1 (Homo sapiens, UniProt P49765)", "T8 construct": "purchased R &D Systems (Minneapolis, Minn.)", "T8 sequence (P49765 22-136 limits assumed)": "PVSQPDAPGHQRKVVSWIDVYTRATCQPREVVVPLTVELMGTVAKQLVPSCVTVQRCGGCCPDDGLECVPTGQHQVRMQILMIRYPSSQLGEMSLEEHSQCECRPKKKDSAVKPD", "assay": "Competition ELISA, growth factor/receptor interaction", "type": "binding", "conditions": "FIG. 2A", "experimental": "as §1"}, "VEGF-A and Flt-1": {"biological_target": "T9, VEGF-A and Flt-1 (Homo sapiens, UniProt P15692)", "T9 construct": "VEGF-A(8-109) and Flt-1; purchased R &D Systems (Minneapolis, Minn.)", "T9 sequence (P15692 214-315)": "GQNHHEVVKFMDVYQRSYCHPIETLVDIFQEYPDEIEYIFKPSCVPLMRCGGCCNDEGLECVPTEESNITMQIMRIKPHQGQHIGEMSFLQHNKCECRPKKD", "assay": "Competition ELISA, growth factor/receptor interaction", "type": "binding", "conditions": "FIGS. 2A and 2B", "experimental": "as §1"}, "[5]": {"system": "hVEGF-A mutants (Y21A, K48A, Q89A, F17A/M81A)", "assay": "SPR binding assay, hVEGF-A mutants", "parameters": "species or system human; kd: unit not given here", "experimental": "Depending on the format of the assay either a streptavidin sensor (SA) or a dextran-coated (CM5) sensor was utilized as described below.\nFor use with the SA sensor, VEGF-A was first biotinylated (no more than 2 biotin/VEGF-A) by incubating the protein with EZ-link NHS-PEG4-Biotin (Pierce) in a 1:1.5 molar ratio respectively, in PBS for 2 hours on ice. Reaction was then quenched by addition of 10 molar excess of Glycine pH 8.0 and the sample was buffer exchanged into PBS using an Amicon 0.5 mL 3000 MWCO ultra-centrifugal filters (EMD Millipore). The biotinylation state of the protein was verified by LC-MS analysis. Biotinylated VEGF-A was then captured on the surface until a resonance unit (RU) signal of about ˜400. For immobilization of VEGF-A on CM5 sensor, the surface was first activated with a mixture of N-ethyl-N′-(3-dimethylaminopropyl)carbodiimide hydrochloride and N-hydroxysuccinimide (EDC/NHS) according to the supplier instructions. VEGF-A was then diluted into coupling buffer (0.1 M Acetate Buffer, pH 5.0) and injected until the signal reached about ˜400 RU followed by a wash with 1 M ethanolamine pH 8.0 to quench remaining activated sites.\nFollowing the capture step, a series of the peptide concentrations were prepared in HBS-EP buffer with matching DMSO concentrations to 0.1% and injected at a flow rate of […]. The resulting sensorgrams were then analyzed using a 1:1 binding model to obtain kinetic data and affinities using Scrubber 2.0 (BioLogic Software).\nThe binding interface of VEGF_CKP9.54.90 on VEGF-A overlaps with that of the natural receptors and G6.31 antibody (FIGS. 7 and 8). […] However, K48A mutation enhanced the binding of VEGF_CKP9.54.90 by ˜2-3 fold, a behavior that is similar to that observed with the G6.31 antibody (Fuh et al. (2006) J. Biol. Chem. 281, 6625-6631)."}}, "note": "Positions of bridges follow the written chain, without caps; N, C: chain ends. Residues, ends and D or L forms follow the SMILES beside them.", "data": [{"smiles": "CC[C@H](C)[C@@H]1NC(=O)[C@H](CC(N)=O)NC(=O)[C@@H](NC(=O)CN)CSSC[C@@H](C(=O)N[C@H](C(=O)N[C@H]2CSSC[C@@H](C(=O)NCC(=O)O)NC(=O)[C@H](CO)NC(=O)[C@H](CCC(N)=O)NC(=O)[C@H](Cc3ccc(O)cc3)NC(=O)[C@H](Cc3ccc(O)cc3)NC(=O)[C@H](CCC(N)=O)NC2=O)C(C)C)NC(=O)CNC(=O)[C@H](C)NC(=O)[C@H](CC(C)C)NC(=O)[C@@H]2CSSC[C@H](NC(=O)CNC(=O)[C@H](Cc3c[nH]c4ccccc34)NC(=O)[C@H](Cc3ccccc3)NC(=O)[C@@H]3CCCN3C(=O)[C@H](CC(C)C)NC(=O)[C@H](CCSC)NC1=O)C(=O)NCC(=O)N[C@@H](CCCNC(=N)N)C(=O)N[C@@H](CC(=O)O)C(=O)N[C@@H](Cc1ccccc1)C(=O)N[C@@H](CCC(=O)O)C(=O)N2", "note": "[VEGF_CKP9.54.90] (H-GCNIMLPFWGCGRDFECLAGCVCQYYQSCG-OH; disulfide 2-21, 11-17, 23-29; N-terminus and C-terminus assumed)", "values": [{"measurement": "inhibition of trypsin protease activity", "setting": "trypsin [1]", "value": "do not inhibit"}, {"measurement": "metabolised at 24 h", "setting": "trypsin [2]; 24 h incubation with trypsin at 37° C., read-out: fraction cleaved at Arg13 within loop 2", "value": "~20", "unit": "%"}, {"measurement": "resistance to trypsin digestion", "setting": "trypsin [2]; FIG. 4", "value": "maintain a degree of resistance"}, {"measurement": "oxidation at Met5 within loop 1", "setting": "[3]", "value": "~30", "unit": "%"}, {"measurement": "inhibition of laser-induced choroidal neovascularization (neovascular area)", "setting": "[4]", "value": "effective inhibition"}, {"measurement": "disruption of the interaction between EGF and EGFR", "setting": "EGF and EGFR", "value": "not disrupt"}, {"measurement": "disruption of the interaction between PDGF and PDGFR", "setting": "PDGF and PDGFR", "value": "not disrupt"}, {"measurement": "disruption of the interaction between PIGF-2 and Flt-1", "setting": "PIGF-2 and Flt-1", "value": "not disrupt"}, {"measurement": "disruption of the interaction between VEGF-D and Flt-4", "setting": "VEGF-D and Flt-4", "value": "not disrupt"}, {"measurement": "disruption of the interaction between NGF and NGFR", "setting": "NGF and NGFR", "value": "not disrupt"}, {"measurement": "disruption of the interaction between VEGF-C and Flt-4", "setting": "VEGF-C and Flt-4", "value": "not disrupt"}, {"measurement": "disruption of the interaction between IGF and IGFR", "setting": "IGF and IGFR", "value": "not disrupt"}, {"measurement": "disruption of the interaction between VEGF-B and Flt-1", "setting": "VEGF-B and Flt-1", "value": "not disrupt"}, {"measurement": "disruption of the interaction between VEGF-A and Flt-1", "setting": "VEGF-A and Flt-1", "value": "disrupts"}, {"measurement": "binding to VEGF-A mutant F17A/M81A", "setting": "[5]; F17A/M81A, relative to wild type VEGF-A", "value": "reduced binding"}, {"measurement": "enhancement of binding by K48A mutation", "setting": "[5]; K48A, relative to wild type VEGF-A", "value": "2-3 fold"}, {"measurement": "binding to VEGF-A mutant Q89A", "setting": "[5]; Q89A, relative to wild type VEGF-A", "value": "reduced binding"}, {"measurement": "binding to VEGF-A mutant Y21A", "setting": "[5]; Y21A, relative to wild type VEGF-A", "value": "reduced binding"}, {"measurement": "Kd", "setting": "[5]; hVEGF-A mutant K48A", "value": 0.19, "unit": "nM"}, {"measurement": "ka", "setting": "[5]; hVEGF-A mutant K48A", "value": "6.04 × 10^7"}, {"measurement": "kd", "setting": "[5]; hVEGF-A mutant K48A", "value": 0.0116}, {"measurement": "Kd", "setting": "[5]; hVEGF-A mutant Q89A", "value": 8.8, "unit": "nM"}, {"measurement": "ka", "setting": "[5]; hVEGF-A mutant Q89A", "value": "1.71 × 10^7"}, {"measurement": "kd", "setting": "[5]; hVEGF-A mutant Q89A", "value": 0.1458}, {"measurement": "Kd", "setting": "[5]; hVEGF-A mutant Y21A", "value": 3.5, "unit": "nM"}, {"measurement": "ka", "setting": "[5]; hVEGF-A mutant Y21A", "value": "3.72 × 10^7"}, {"measurement": "kd", "setting": "[5]; hVEGF-A mutant Y21A", "value": 0.1202}]}]}
